From article PMC3646991 (Investigational new drugs, 2012)
Where “and” joins values, the source holds several entries; their conditions need not be identical. Equal values may be shown once.

What was measured:
[1] = cited from earlier work
tumor cell lines = details: read-out: in vitro IC50 for tumor cell lines; cited from earlier work
[2] = tested on: patients with advanced solid tumors; assay: Phase I dose escalation: dose-limiting toxicities, MTD and adverse events
[3] = tested on: patients with advanced solid tumors; details: human, in vivo, 4 weeks
[4] = Steady-state plasma triapine; format: in vivo, human; details: for clearance: human, plasma
[5] = tested on: human ribonucleotide reductase M2 subunit (hRRM2); assay: Circulating serum hRRM2 by ELISA; format: in vivo; details: during treatment cycles 1 and 2, 21 of 28 patients
advanced solid tumors = assay: Tumor response; format: in vivo, human
[6] = triapine 0.01–1 mg/mL in 0.9 % sodium chloride, protected from light, room temperature or 2–8°C; cited from earlier work
[7] = 36 patients, all dose levels, triapine + FDR gemcitabine
[8] = Arm A and B combined, dose 160, N=2, individual values
[9] = of 15 patients with stable disease
[10] = of 30 evaluable patients, triapine + FDR gemcitabine
[11] = of 30 evaluable patients, triapine + FDR gemcitabine, RECIST 1.0

In the case of Nc1ccn([C@@H]2O[C@H](CO)[C@@H](O)C2(F)F)c(=O)n1 [gemcitabine], the steady-state plasma levels ([1]; gemcitabine at fixed-dose-rate 10 mg/m^2/min) is given as 15 to 20 µmol/L and the “plasma gemcitabine concentration above which dFdCTP accumulation is saturated” value ([1]; peripheral blood mononuclear cells and circulating leukemic blasts) is given as 15 to 20 µmol/L.
In the case of NC(=S)NN=Cc1ncccc1N [triapine, 3-Aminopyridine-2-carboxaldehyde thiosemicarbazone], the IC50 (tumor cell lines) is listed as 1000 to 2000 nM, the “Flu-Like Syndrome, Grade 1/2” value [2, 7] is listed as 4 (11) N (%) and the “Flu-Like Syndrome, Grade 3” value [2, 7] is listed as 0 N (%). For the same compound, the “Flu-Like Syndrome, Grade 4” value [2, 7] was 0 N (%), the “Infection, Grade 3” value [2, 7] was 3 (8) N (%) and the “Infection, Grade 4” value [2, 7] was 0 N (%). For the same compound, the “MTD (maximum tolerated dose)” value ([2]; triapine 24-hour infusion immediately followed by gemcitabine 1000 mg/m^2 (100-minute infusion), every 2 weeks of a 4-week cycle) was 90 mg, the “recommended phase II dose (RP2D)” value [3] was 90 mg and the Css ([4]; Arm A and B combined, 31 patients, 75 to 160 mg over 24-hour i.v. infusion Day 1, mean ± SD) was 400 ± 140 nM. The Css ([4]; Arm A and B combined, dose 75, N=5, mean ± SD) was 370 ± 50 nM, the Css ([4]; Arm A and B combined, dose 90, N=15, mean ± SD) was 380 ± 180 nM and the Css ([4]; Arm A and B combined, dose 120, N=9, mean ± SD) was 440 ± 120 nM. The CL [4, 8] was 42.80 L/h, the Css [4, 8] was 520 nM and 460 nM and the “Css (range)” value ([4]; Arm A, 75 to 160 mg) was 240 to 820 nM. For the same compound, the Css ([4]; Arm A, all doses 75 to 160 mg, mean ± SD) was 430 ± 140 nM, the Css ([4]; Arm A, dose 75 (head prints mg/m^2), 24-h i.v. infusion, day 1 cycle 1, N=1) was 410 nM and the Css ([4]; Arm A, dose 90, 24-h i.v. infusion, N=5, mean ± SD) was 450 ± 230 nM. For the same compound, the Css ([4]; Arm A, dose 120, 24-h i.v. infusion, N=5, mean ± SD) was 390 ± 90 nM, the Css ([4]; Arm A, dose 160, 24-h i.v. infusion, N=2, individual values) was 520 nM and 460 nM and the CL ([4]; Arm A, dose 160, N=2, individual values) was 42.80 L/h. For the same compound, the “Css (range)” value ([4]; Arm B, 75 to 120 mg) was 190 to 720 nM, the Css ([4]; Arm B, all doses 75 to 120 mg, mean ± SD) was 380 ± 140 nM and the Css ([4]; Arm B, dose 75, 24-h i.v. infusion, N=4, mean ± SD) was 360 ± 50 nM. The Css ([4]; Arm B, dose 90, 24-h i.v. infusion, N=10, mean ± SD) was 350 ± 150 nM, the Css ([4]; Arm B, dose 120, 24-h i.v. infusion, N=4, mean ± SD) was 470 ± 170 nM and the “mean Css” value ([4]; females, n = 18) was 440 ± 160 nM. The clearance ([4]; intravenous, 75 mg, CL, Arm B, dose 75, N=4, mean ± SD) was 431 mL/min, the clearance ([4]; intravenous, 90 mg, CL, Arm A, dose 90, N=5, mean ± SD) was 497 mL/min and the clearance ([4]; intravenous, 90 mg, CL, Arm B, dose 90, N=10, mean ± SD) was 613 mL/min. The clearance ([4]; intravenous, 120 mg, CL, Arm A and B combined, dose 120, N=9, mean ± SD) was 596 mL/min, the clearance ([4]; intravenous, 120 mg, CL, Arm A, dose 120, N=5, mean ± SD) was 653 mL/min and the clearance ([4]; intravenous, 120 mg, CL, Arm B, dose 120, N=4, mean ± SD) was 560 mL/min. For the same compound, the clearance ([4]; intravenous, 160 mg, CL, Arm A, dose 160, N=2, individual values) was 635 mL/min, the clearance ([4]; intravenous, CL (range), Arm A and B combined, 31 patients, 75 to 160 mg) was 226 to 899 mL/min and the clearance ([4]; intravenous, CL (range), Arm A, 75 to 160 mg) was 226 to 804 mL/min. The clearance ([4]; intravenous, CL (range), Arm B, 75 to 120 mg) was 265 to 899 mL/min, the clearance ([4]; intravenous, CL, Arm A, all doses 75 to 160 mg, mean ± SD) was 580 mL/min and the clearance ([4]; intravenous, CL, Arm B, all doses 75 to 120 mg, mean ± SD) was 561 mL/min. The clearance ([4]; iv, CL, Arm A and B combined, 31 patients, 75 to 160 mg over 24-hour i.v. infusion Day 1, mean ± SD) was 562 mL/min, the “mean Css” value ([4]; males, n = 13) was 330 ± 80 nM and the “variability of Css and CL (coefficient of variation)” value ([4]; within and between dose groups) was “approximately 30%”. The “patients with decline in hRRM2 levels” value [5] was 75%, the “median time to progression” value (advanced solid tumors; 15 patients with stable disease, 95 % CI 84–115 days) was 111 days and the disease control rate (advanced solid tumors; 30 evaluable patients, SD + PR, triapine + FDR gemcitabine) was 53%. For the same compound, the “patients with prolonged stable disease more than 3 months” value (advanced solid tumors; [9]) was 12 patients, the “stable-disease patients who had previously progressed on gemcitabine” value (advanced solid tumors; [9]) was 7 patients and the “partial response (number of patients)” value (advanced solid tumors; [10]) was 1 patients. The “progressive disease (number of patients)” value (advanced solid tumors; [10]) was 14 patients, the “stable disease (number of patients)” value (advanced solid tumors; [10]) was 15 patients and the partial response (advanced solid tumors; [11]) was 3%. For the same compound, the stable disease (advanced solid tumors; [11]) was 50%, the “median time to tumor progression” value (advanced solid tumors; patients with SD) was roughly 4 months and the stability of admixture [6] was 96 h.
